This is an account of results in US10883137B2, “Method to detect activity of a polymerase” (MAX-PLANCK-GESELLSCHAFT ZUR FÖRDERUNG DER WISSENSCHAFTEN …, priority 2015, dated 2021).

Common to all, as to assay type: biochemical
Assay [1] concerns the target human POLRMT (mitochondrial DNA-directed RNA polymerase) (Homo sapiens, UniProt O00411). In words: Inhibitor activity determination, mitochondrial RNA-polymerase, 384-well dose-response format. Particulars: for IC50: 384-well, 8-point dilution series, 200 μM to 5 μM, 500 μM dNTPs; for Hill slope: four-parameter non-linear regression fit; for res. activity at highest conc.: highest assay conc. 200 μM; for res. activity at highest conc. / res. activity at lowest conc.: relative to positive control; for res. activity at lowest conc.: lower limit of 5 μM. The source says: The assay protocol largely corresponds to the setup described in example 1 (Determination of activity of mitochondrial RNA-polymerase using the same initiator and probes than in example 1). For determination of the activity, however, the reaction mix always contains the nucleotide triphosphate mix, to enforce potential competition between inhibitor compound and substrate. Negative control samples are set up such that no template DNA (pUC-LSP) is included in the reaction mixture.
Pre-diluted protein samples are mixed with the dNTP-mixture in a reaction buffer, containing 10 mM TrisHCl pH 7.5, 10 mM MgCl2, 40 mM NaCl, 2 mM GSH, 0.01% (w/v) Tween-20 and 0.1 mg/mL BSA, to yield final assay concentrations of 7.5 nM (POLRMT), 90 nM (TFAM), 20 nM (TFB2M) and 500 μM (dNTPs). 5 μL of this mix are dispensed, depending on the chosen microtiter plate format, using multi-channel pipettes or a Thermo Multidrop® dispenser into the wells of a microtiter plate and incubated at room-temperature (RT) for 10 minutes.
Equal amounts of DMSO without any compound are added to positive control samples. An incubation step at RT for 10 minutes is applied to allow binding of compounds.
The enzymatic reaction is started by the addition of 5 μL of a mix of template DNA (pUC-LSP) in reaction buffer to a final concentration of 0.5 nM. The following mixing, incubation and detection steps correspond to the steps described in example 1.

Assay [2] deals with T1, human mitochondrial DNA-polymerase (POLG) (Homo sapiens, UniProt P54098).
T1 sequence (P54098 1-1239): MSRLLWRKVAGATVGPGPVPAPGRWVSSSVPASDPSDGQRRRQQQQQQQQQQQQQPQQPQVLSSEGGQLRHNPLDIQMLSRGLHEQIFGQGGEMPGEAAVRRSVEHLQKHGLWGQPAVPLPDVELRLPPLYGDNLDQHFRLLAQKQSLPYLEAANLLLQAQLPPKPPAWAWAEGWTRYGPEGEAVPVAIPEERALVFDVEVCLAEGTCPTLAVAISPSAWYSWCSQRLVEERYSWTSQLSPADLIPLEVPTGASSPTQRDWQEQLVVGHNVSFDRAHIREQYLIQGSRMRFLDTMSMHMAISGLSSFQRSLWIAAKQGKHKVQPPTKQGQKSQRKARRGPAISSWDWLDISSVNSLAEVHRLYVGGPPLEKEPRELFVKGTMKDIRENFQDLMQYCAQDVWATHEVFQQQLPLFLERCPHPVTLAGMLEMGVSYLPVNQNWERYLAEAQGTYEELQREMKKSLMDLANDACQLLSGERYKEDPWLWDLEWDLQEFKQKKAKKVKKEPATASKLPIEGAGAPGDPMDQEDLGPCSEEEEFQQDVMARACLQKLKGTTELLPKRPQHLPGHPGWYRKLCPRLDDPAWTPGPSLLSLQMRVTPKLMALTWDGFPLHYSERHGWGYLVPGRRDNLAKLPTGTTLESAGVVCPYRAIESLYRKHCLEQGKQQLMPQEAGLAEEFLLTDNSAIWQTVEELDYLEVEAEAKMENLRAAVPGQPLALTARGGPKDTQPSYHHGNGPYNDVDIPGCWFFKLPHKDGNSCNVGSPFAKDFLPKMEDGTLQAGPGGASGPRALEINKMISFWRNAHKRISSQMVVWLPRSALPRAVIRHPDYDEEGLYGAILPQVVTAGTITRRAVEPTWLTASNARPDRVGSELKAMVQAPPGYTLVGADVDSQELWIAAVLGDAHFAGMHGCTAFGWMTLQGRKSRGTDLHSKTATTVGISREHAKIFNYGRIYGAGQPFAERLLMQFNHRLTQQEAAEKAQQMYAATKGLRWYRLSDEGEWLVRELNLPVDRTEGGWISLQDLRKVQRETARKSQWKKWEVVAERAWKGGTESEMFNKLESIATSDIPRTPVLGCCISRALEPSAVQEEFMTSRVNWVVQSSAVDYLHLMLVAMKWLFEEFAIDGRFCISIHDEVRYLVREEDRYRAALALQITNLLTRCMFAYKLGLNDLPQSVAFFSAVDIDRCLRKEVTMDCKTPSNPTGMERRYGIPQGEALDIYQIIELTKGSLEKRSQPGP
T1 sequence (Q9UHN1 1-485 partner): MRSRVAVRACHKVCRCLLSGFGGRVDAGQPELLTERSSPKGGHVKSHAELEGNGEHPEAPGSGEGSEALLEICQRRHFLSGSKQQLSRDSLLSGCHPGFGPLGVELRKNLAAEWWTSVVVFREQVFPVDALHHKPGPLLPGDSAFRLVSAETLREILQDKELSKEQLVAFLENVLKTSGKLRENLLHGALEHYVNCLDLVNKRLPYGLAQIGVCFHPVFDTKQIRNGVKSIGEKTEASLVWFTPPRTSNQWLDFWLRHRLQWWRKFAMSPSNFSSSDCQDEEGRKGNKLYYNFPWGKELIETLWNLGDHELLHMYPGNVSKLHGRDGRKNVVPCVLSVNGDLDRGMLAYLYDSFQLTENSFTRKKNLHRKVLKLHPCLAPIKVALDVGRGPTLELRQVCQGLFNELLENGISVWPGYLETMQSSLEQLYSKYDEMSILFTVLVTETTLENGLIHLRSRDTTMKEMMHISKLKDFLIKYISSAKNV
Put plainly: Inhibitor activity determination using human mitochondrial DNA-polymerase, 384-well dose-response format. From the text: The assay protocol largely corresponds to the setup described in example 1 (Determination of activity of mitochondrial RNA-polymerase using the same initiator and probes than in example 1). For determination of the activity of the mitochondrial replication, however, the two-subunit complex of the mitochondrial DNA-polymerase (POLG, NM_002693.2, NM_007215.3), the […] TWINKLE (NM_021830.4) and mitochondrial single-strand binding protein (SSBP1, NM_001256510.1) are used. Also, the reaction mix always contains the substrate nucleotide mix, to enforce potential competition between inhibitor compound and substrate.
For DNA-replication the template is generated using a circular, single-stranded DNA formed from pBlueskript SK+. To this circular, ssDNA, a primer with 42-nucleotide poly-T is annealed to form a fork structure. To make dsDNA, the primer is elongated with KOD polymerase, which synthesizes DNA around the entire circle, until again it reaches the primer. At this point DNA-synthesis stops and a double-stranded DNA template of about 3000 bp with an artificial replication fork is formed.
For activity determination, negative control samples are set up such that no template DNA is included in the assay mixture. Assay components are mixed in a buffer containing 25 mM TrisHCl pH 8.0, 5 mM MgCl2, 2 mM GSH, and 0.1 mg/mL BSA, to yield final assay concentrations of 30 nM POLG, 15 nM TWINKLE, 20 nM SSBP1, 250 μM dNTPs, 4 mM ATP as well as the two DNA-probes at 3 nM concentration each.
5 μL of this mix are dispensed, depending on the chosen microtiter plate format, using multi-channel pipettes or a Thermo Multidrop® dispenser into the wells of a microtiter plate and incubated at room-temperature (RT) for 10 minutes.
Chemical compounds under scrutiny in the assay are applied using contact-free acoustic droplet-dispensing (Labcyte Echo®) from 10 mM compound stocks (in 100% DMSO) in an appropriate 8-point dilution series to ensure accurate fitting of the resulting activity data (i.e. upper and lower asymptote reached). Equal amounts of DMSO without any compound are added to positive control samples. An incubation step at RT for 10 minutes is applied to allow binding of compounds.
The enzymatic reaction is started by the addition of 5 μL of a mix template DNA in reaction buffer to a final concentration of 5 nM. Following incubation for 1 h at 37° C., the reaction is stopped by addition of a detection mix, containing 3 nM streptavidin-coupled Eu-cryptate pre-incubated with an excess of an unspecific random oligonucleotide, in 20 mM Tris-HCl pH 8.0, 400 mM NaCl and 50 mM EDTA. HTRF-signals are measured following over-night incubation at room-temperature. […]

Assay [3] has as its target mitochondrial RNA-polymerase (POLRMT) (Homo sapiens, UniProt O00411). Put plainly: Activity of mitochondrial RNA-polymerase with and without TEFM (in vitro transcription, FRET detection). Particulars: TEFM 100 nM; product formation quenched after 2 h. The method, then:
FIG. 8: is displaying the result of a comparative study of the effect of adding TEFM to the in vitro transcription reaction, as described in example 6. Two transcription reactions were set up either with or without the addition of TEFM (100 nM) and product formation quenched after 2 h. The specific FRET signal of the reaction without TEFM was used as a reference and normalized to 100%, while for the reaction including TEFM a signal increase of around 18% (±10%) was measured under the chosen conditions.
To enhance the enzymatic turnover and, thus, specific signal intensity of the mitochondrial in vitro transcription reaction, the mitochondrial transcription elongation factor (TEFM, NP_078959.3.) can be added to the assay reagent mixture.
The general workflow of the assay and composition of assay reagents are described in Posse et al (Nucl. Acids Res. 2015). A linearized pUC18 plasmid comprising the human mitochondrial light-strand promotor sequence (LSP) is used as transcription plasmid.
Adaptations made to the original protocol relate to the different detection method applied and correspond to the set-up described in example 1.

human POLRMT (mitochondrial DNA-directed RNA polymerase), sequence (O00411 42-1230): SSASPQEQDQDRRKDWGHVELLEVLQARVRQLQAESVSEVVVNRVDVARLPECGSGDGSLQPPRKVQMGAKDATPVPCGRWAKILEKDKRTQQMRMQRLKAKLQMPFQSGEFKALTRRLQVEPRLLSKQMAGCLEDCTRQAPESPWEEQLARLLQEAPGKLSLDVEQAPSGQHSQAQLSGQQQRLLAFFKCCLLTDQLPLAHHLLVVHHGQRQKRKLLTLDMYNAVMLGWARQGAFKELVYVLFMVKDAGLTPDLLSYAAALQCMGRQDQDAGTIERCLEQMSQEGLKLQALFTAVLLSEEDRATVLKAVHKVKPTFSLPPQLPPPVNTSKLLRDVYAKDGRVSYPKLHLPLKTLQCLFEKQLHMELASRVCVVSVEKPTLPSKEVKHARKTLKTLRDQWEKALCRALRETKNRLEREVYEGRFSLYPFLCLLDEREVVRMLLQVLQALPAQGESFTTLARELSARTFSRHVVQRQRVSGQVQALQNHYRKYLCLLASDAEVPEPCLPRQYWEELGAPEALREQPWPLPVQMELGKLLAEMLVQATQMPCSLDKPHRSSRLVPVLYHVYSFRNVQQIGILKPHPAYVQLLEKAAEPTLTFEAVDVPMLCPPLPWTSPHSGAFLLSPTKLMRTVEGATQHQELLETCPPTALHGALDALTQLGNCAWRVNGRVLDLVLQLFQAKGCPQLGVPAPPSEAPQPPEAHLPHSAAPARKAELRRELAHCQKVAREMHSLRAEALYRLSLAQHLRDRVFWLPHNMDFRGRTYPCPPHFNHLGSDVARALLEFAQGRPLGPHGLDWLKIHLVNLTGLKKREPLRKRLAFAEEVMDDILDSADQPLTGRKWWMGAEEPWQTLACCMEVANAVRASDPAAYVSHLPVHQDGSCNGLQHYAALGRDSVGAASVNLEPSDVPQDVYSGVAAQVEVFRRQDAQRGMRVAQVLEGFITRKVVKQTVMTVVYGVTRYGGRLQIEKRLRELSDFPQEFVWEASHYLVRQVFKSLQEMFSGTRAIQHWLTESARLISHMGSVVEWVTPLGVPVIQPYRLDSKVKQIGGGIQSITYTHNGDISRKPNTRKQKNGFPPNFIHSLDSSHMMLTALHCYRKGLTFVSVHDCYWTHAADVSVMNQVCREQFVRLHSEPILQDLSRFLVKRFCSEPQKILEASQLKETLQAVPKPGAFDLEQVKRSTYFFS
mitochondrial RNA-polymerase (POLRMT), sequence (O00411 42-1230): as above

For orientation: IC50 means the concentration needed to halve the response being measured. A word on the Hill slope: it is the slope factor of the fitted curve. Turning to 2′methyl/OH-O-UTP, in assay [1], it took 84.5 µM to reach half-maximal inhibition (IC50), the Hill slope is given as −0.85, the “res. activity at highest conc.” value came to 8.6% and the “res. activity at lowest conc.” value came out at 102%.

Molecule `Cc1cn([C@H]2C[C@H](O)[C@@H](COP(=O)(O)OP(=O)(O)OP(=O)(O)O)O2)c(=O)[nH]c1=S` [4-Thiothymidine-5′-Triphosphate] had an IC50 in assay [2] (384-well, 200 μM to 5 μM, 250 μM dNTPs) of 54.1 µM. Moreover, in assay [2] (four-parameter non-linear regression fit), the Hill slope is listed as −0.9462. Besides, in assay [2] (highest assay conc. 200 μM), the “res. activity at highest conc.” value worked out at 22.6%. Also, the “res. activity at lowest conc.” value in assay [2] (lower limit of 5 μM) amounted to 92.79%.

`C[C@@]1(F)[C@H](O)[C@@H](COP(=O)(O)OP(=O)(O)OP(=O)(O)O)O[C@H]1n1cnc2c(=O)[nH]c(N)nc21` [2′methyl/F-GTP]: in assay [1], the IC50 turned out to be 73.4 µM, the Hill slope is −2.15, the “res. activity at highest conc.” value came out at 46.9% and the “res. activity at lowest conc.” value is 88.32%.

`C[C@@]1(O)[C@H](O)[C@@H](COP(=O)(O)OP(=O)(O)OP(=O)(O)O)O[C@H]1n1cnc2c(=O)[nH]c(N)nc21` [2′methyl/OH-GTP]: in assay [1], the Hill slope was −2.05, the “res. activity at highest conc.” value is listed as 65.5% and the “res. activity at lowest conc.” value is 96.5%.

B1: TEFM: mitochondrial transcription elongation factor (TEFM, NP_078959.3) (protein, UniProt Q96QE5 36-360, looked up)
Transcription elongation …: KSTTPKKITPNVTFCDENAKEPENALDKLFSSEQQASILHVLNTASTKELEAFRLLRGRRSINIVEHRENFGPFQNLESLMNVPLFKYKSTVQVCNSILCPKTGREKRKSPENRFLRKLLKPDIERERLKAVNSIISIVFGTRRIAWAHLDRKLTVLDWQQSDRWSLMRGIYSSSVYLEEISSIISKMPKADFYVLEKTGLSIQNSSLFPILLHFHIMEAMLYALLNKTFAQDGQHQVLSMNRNAVGKHFELMIGDSRTSGKELVKQFLFDSILKADPRVFFPSDKIVHYRQMFLSTELQRVEELYDSLLQAIAFYELAVFDSQP
In the case of B1, in assay [3], the “signal increase of specific FRET signal versus reaction without TEFM (100%)” value was “around 18%”.
